# According to PMC8175350, “Drug repurposing screens identify chemical entities for the development of COVID-19 interventions” (Nature Communications, 2021):
# Where “and” joins values, the source holds several entries; their conditions need not be identical. Equal values may be shown once. Read-outs that look alike come from different tables or passages of the source.
# How the values were obtained:
# SARS-CoV-2 [1] = assay: microbe, parasite or virus in culture; format: cell-based
# [2] = Uninfected HeLa-ACE2 24 h live/dead cytotoxicity counter screen; format: cell-based, human; conditions: human, uninfected HeLa-ACE2 cells, detail block; read-out: HeLa-ACE2 uninfected cytotoxicity CC50 GeoMean
# HeLa-ACE2 cells [3] = assay: as above; format: cell-based, human; conditions: HeLa-ACE2; concentration log[M] -8.59517; replicates
# SARS-CoV-2 [4] = assay: microbe, parasite or virus in culture; format: cell-based; conditions: for %infected: Calu-3, replicates n=1, n=2
# SARS-CoV-2 [5] = assay: microbe, parasite or virus in culture; format: cell-based; remark: listed apart in the source
# SARS-CoV-2 [6] = format: cell-based; conditions: 72 hpi
# SARS-CoV-2 [7] = assay: Golden Syrian hamster SARS-CoV-2 efficacy model, body weight; format: in vivo; conditions: for group average % of starting weight: day 5 of infection
# SARS-CoV-2 [8] = assay: Hamster lung viral titer by plaque assay, day 5; format: in vivo, Golden Syrian hamster; conditions: for SARS-CoV-2 viral load in lung by plaque quantification, individual animals: values look like log10
# SARS-CoV-2 [9] = assay: Hamster lung histopathology/infiltrate quantification (H&E, ImageJ); format: in vivo, Golden Syrian hamster; conditions: 500 mg/kg
# Source text: ImageJ (V1.53) software is used to quantify H&E-stained slide images (at ×20 magnification). Images are first converted to 8-Bit (Image > Type > 8-Bit), their threshold is adjusted (Image > Adjust > Threshold), a threshold value between 70–80% is chosen to ensure only dark stained nuclei are detected. Following thresholding the image is converted to a mask (Process > Binary > Convert to Mask) and analyzed (Analyze > Analyze Particles) with default settings, adding display results and show outline and the output was exported into GraphPad Prism (V9.0.0) where the nonparametric, two-sided Mann–Whitney statistical test was used to calculate significance.
# SARS-CoV-2 [10] = assay: Hamster lung RNA-Seq analysis; format: in vivo, Golden Syrian hamster; conditions: 500 mg/kg
# [11] = Pharmacokinetic studies in Syrian hamsters, PO; format: in vivo; conditions: male, Syrian, hamster, in vivo
# Experimental: Pharmacokinetic studies were conducted at Scripps Research Institute’s Animal Models Core in accordance with IACUC guidelines (IACUC Protocol #09-0004-5). Eight-week-old male Syrian Hamsters (Charles River; three per group) were dosed PO as indicated for each compound and formulation. Plasma concentration of each test article was monitored up to 48 h. Nelfinavir was formulated in 10% DMSO/90% corn oil and MK-4482 was formulated in 10% PEG400/2.5% Cremaphor RH40 for both pharmacokinetic and efficacy studies.
# HeLa-ACE2 cells [12] = assay: cells; format: cell-based, human; conditions: Homo sapiens, HeLa-ACE2; read-out: HeLa-ACE2 TOA cell count EC50 GeoMean
# Calu-3 cells [13] = system: Calu-3 cells
# HeLa-ACE2 cells [14] = assay: cells; conditions: Homo sapiens
# Calu-3 cells [15] = assay: cells; conditions: Homo sapiens
# in vitro [16] = conditions: human, Calu-3 uninfected cytotoxicity CC50 GeoMean
# in vitro [17] = conditions: human
# in vitro [18] = conditions: human; remark: listed apart in the source
structure (smiles),measurement,setting,value
CC(C)C(=O)OC[C@H]1O[C@@H](n2ccc(NO)nc2=O)[C@H](O)[C@@H]1O [MK-4482],Emax,"SARS-CoV-2 [1]; Severe acute respiratory syndrome coronavirus 2, HeLa-ACE2, 24 h, curve plateau at infinite concentration, read-out: HeLa-ACE2 CoV-2 Sinf Average",100%
same,EC50,"SARS-CoV-2 [1]; Severe acute respiratory syndrome coronavirus 2, HeLa-ACE2, detail block, read-out: HeLa-ACE2 CoV-2 EC50 GeoMean",> 9.45 µM
same,HeLa-ACE2 SI,"SARS-CoV-2 [1]; selectivity index, uninfected HeLa-ACE2 CC50 / SARS-CoV-2 EC50",> 4.21
same,CC50 at 24 h,[2],> 39.8 µM
same,cytotox,HeLa-ACE2 cells [3],-0.706 and -12.7385 and -12.928 and 0.5106 and 4.684 and -11.4286 and -5.289 and -2.8 and 6.41
same,%infected,SARS-CoV-2 [4]; concentration log[M] -5.00096,-32.7882% and -37.4837% and -33.6325% and -41.3774% and -26.9927% and -42.8416%
same,%infected,SARS-CoV-2 [4]; concentration log[M] -5.47808,-27.4805% and -3.693% and -9.149% and -11.3438% and 9.653% and -8.935%
same,%infected,SARS-CoV-2 [4]; concentration log[M] -6.08014,23.1125% and 4.59% and 25.286% and 17.3454% and 15.2546% and 10.3832%
same,%infected,SARS-CoV-2 [4]; concentration log[M] -6.42922,17.3493% and 17.6914% and 5.1734% and 5.136% and 26.2062% and 8.78%
same,%infected,SARS-CoV-2 [4]; concentration log[M] -6.90623,7.3785% and 13.9122% and -0.1637% and 2.863% and 27.9695% and 13.9935%
same,%infected,SARS-CoV-2 [4]; concentration log[M] -7.50836,-8.777% and 19.9854% and 1.789% and 24.5386% and 23.5481% and -28.3332%
same,%infected,SARS-CoV-2 [4]; concentration log[M] -7.85886,17.2433% and 32.9409% and -21.7492% and 16.4627% and 42.3108% and 21.6153%
same,%infected,SARS-CoV-2 [4]; concentration log[M] -8.33602,11.8145% and 8.098% and -0.8953% and 19.1715% and 30.2349% and 22.7038%
same,Emax,"SARS-CoV-2 [4]; Severe acute respiratory syndrome coronavirus 2, Calu-3, 48 h, curve plateau at infinite concentration, read-out: Calu-3 CoV-2 Sinf Average",100%
same,EC50,"SARS-CoV-2 [4]; Severe acute respiratory syndrome coronavirus 2, Calu-3, detail block, read-out: Calu-3 CoV-2 EC50 GeoMean",> 9.98 µM
same,TOA,"SARS-CoV-2 [5]; HeLa-ACE2, log[M] -7.8551",2.9089 and 4.102 and 5.064
same,EC50,"SARS-CoV-2 [5]; Severe acute respiratory syndrome coronavirus 2, HeLa-ACE2, detail block, read-out: HeLa-ACE2 TOA CoV-2 EC50 GeoMean",> 9.59 µM
same,TOA:HeLa-ACE2 EC50 Ratio,SARS-CoV-2 [5]; TOA EC50 / HeLa-ACE2 SARS-CoV-2 EC50,1.014
same,reduction in apical viral loads,SARS-CoV-2 [6],> 1 log
same,group average % of starting weight,SARS-CoV-2 [7]; 50 mg/kg PO BID,90%
same,"Percent weight from day 0, individual animals","SARS-CoV-2 [7]; 50 mg/kg, Day 1",100.619% and 100% and 99.9008% and 97.2408% and 100.231%
same,"Percent weight from day 0, individual animals","SARS-CoV-2 [7]; 50 mg/kg, Day 2",97.6006% and 97.2498% and 96.3294% and 93.8963% and 97.0023%
same,"Percent weight from day 0, individual animals","SARS-CoV-2 [7]; 50 mg/kg, Day 3",96.13% and 95.8747% and 93.0556% and 92.5585% and 94.3121%
same,"Percent weight from day 0, individual animals","SARS-CoV-2 [7]; 50 mg/kg, Day 4",94.4272% and 93.9649% and 89.1865% and 91.7224% and 90.8532%
same,"Percent weight from day 0, individual animals","SARS-CoV-2 [7]; 50 mg/kg, Day 5",93.4985% and 90.2215% and 86.4087% and 91.3043% and 88.9316%
same,group average % of starting weight,SARS-CoV-2 [7]; 150 mg/kg PO BID,89%
same,"Percent weight from day 0, individual animals","SARS-CoV-2 [7]; 150 mg/kg, Day 1",99.3145% and 100.794% and 101.014% and 100.59% and 100.598%
same,"Percent weight from day 0, individual animals","SARS-CoV-2 [7]; 150 mg/kg, Day 2",97.0009% and 97.9349% and 97.6599% and 97.2199% and 98.281%
same,"Percent weight from day 0, individual animals","SARS-CoV-2 [7]; 150 mg/kg, Day 3",94.7729% and 96.1875% and 94.7738% and 95.7035% and 94.843%
same,"Percent weight from day 0, individual animals","SARS-CoV-2 [7]; 150 mg/kg, Day 4",92.1165% and 92.5338% and 92.3635% and 94.524% and 91.4798%
same,"Percent weight from day 0, individual animals","SARS-CoV-2 [7]; 150 mg/kg, Day 5",90.4884% and 88.2446% and 89.2356% and 90.9014% and 88.0419%
same,group average % of starting weight,SARS-CoV-2 [7]; 500 mg/kg PO BID,97%
same,"Percent weight from day 0, individual animals","SARS-CoV-2 [7]; 500 mg/kg, Day 1",100.542% and 100.174% and 100.172% and 100.97% and 95.4962%
same,"Percent weight from day 0, individual animals","SARS-CoV-2 [7]; 500 mg/kg, Day 2",100.619% and 100.174% and 98.4483% and 98.806% and 95.246%
same,"Percent weight from day 0, individual animals","SARS-CoV-2 [7]; 500 mg/kg, Day 3",101.161% and 99.7394% and 97.8448% and 97.1642% and 96.9975%
same,"Percent weight from day 0, individual animals","SARS-CoV-2 [7]; 500 mg/kg, Day 4",100.774% and 99.5656% and 97.1552% and 94.5522% and 97.9983%
same,"Percent weight from day 0, individual animals","SARS-CoV-2 [7]; 500 mg/kg, Day 5",100.31% and 99.7394% and 95.9483% and 95.597% and 98.0817%
same,viral reduction,"SARS-CoV-2 [8]; 50 mg/kg PO BID, compared to vehicle control",99%
same,live viral titers in the lungs,"SARS-CoV-2 [8]; 50 mg/kg PO BID, day 5, group average",4.5 × 10^3 PFU/lung
same,"SARS-CoV-2 viral load in lung by plaque quantification, individual animals","SARS-CoV-2 [8]; 50 mg/kg, day 5",4.176 and 0 and 3.653 and 4.477
same,live viral titers in the lungs,"SARS-CoV-2 [8]; 150 mg/kg PO BID, day 5",undetectable
same,"SARS-CoV-2 viral load in lung by plaque quantification, individual animals","SARS-CoV-2 [8]; 150 mg/kg, day 5",0
same,live viral titers in the lungs,"SARS-CoV-2 [8]; 500 mg/kg PO BID, day 5",undetectable
same,"SARS-CoV-2 viral load in lung by plaque quantification, individual animals","SARS-CoV-2 [8]; 500 mg/kg, day 5",0
same,histological examination of lungs,SARS-CoV-2 [9],protected
same,abundance of cellularity and infiltrates in the lungs (ImageJ),"SARS-CoV-2 [9]; MK-4482-treated, Hamster 1-4, individual images",2983 and 5397 and 4186 and 5390 and 1931 and 4673 and 3775 and 5624 and 2350 and 4146 and 3662 and 5094 and 4440 and 4933 and 3481 and 5058 and 2520 and 4471 and 3837 and 4151 and 2838 and 4738 and 3878 and 3011 and 2773
same,genes significantly down regulated vs infected vehicle-treated controls (DESeq2),SARS-CoV-2 [10],66 genes
same,unsupervised hierarchical clustering of lung RNA-Seq samples,SARS-CoV-2 [10],clustered together with uninfected samples
same,Cl,[11],401.00 mL/min/kg
same,EC50,HeLa-ACE2 cells [12],> 9.59 µM
same,uninfected Calu-3 CC50,Calu-3 cells [13],> 29.85 ×÷ 1 (n=2) μM
same,cytotox,Calu-3 cells [13]; human,-7.212
same,Emax,"HeLa-ACE2 cells [14]; HeLa-ACE2, 24 h, read-out: HeLa-ACE2 cell count Sinf Average",100%
same,EC50,"HeLa-ACE2 cells [14]; HeLa-ACE2, read-out: HeLa-ACE2 cell count EC50 GeoMean, detail block",> 9.59 µM
same,Emax,"Calu-3 cells [15]; Calu-3, 48 h, read-out: Calu-3 cell count Sinf Average",100%
same,EC50,"Calu-3 cells [15]; Calu-3, read-out: Calu-3 cell count EC50 GeoMean, detail block",> 9.98 µM
same,CC50 at 48 h,in vitro [16],> 29.9 µM
same,CC50 at 72 h,in vitro [17],> 39.8 µM
same,CC50 at 72 h,in vitro [18],> 39.8 µM
